Structures are written as SMILES.

Assay [1] addresses CDK2 (human) (UniProt P24941). In words: Cell-Based Assay.
The target in a further assay is EGFR (human) (UniProt P00533).
The target of assay [2] is CDK2 (human) (UniProt P24941). In words: Enzyme Assay.

Sequence of EGFR (human) (P00533 whole entry, looked up): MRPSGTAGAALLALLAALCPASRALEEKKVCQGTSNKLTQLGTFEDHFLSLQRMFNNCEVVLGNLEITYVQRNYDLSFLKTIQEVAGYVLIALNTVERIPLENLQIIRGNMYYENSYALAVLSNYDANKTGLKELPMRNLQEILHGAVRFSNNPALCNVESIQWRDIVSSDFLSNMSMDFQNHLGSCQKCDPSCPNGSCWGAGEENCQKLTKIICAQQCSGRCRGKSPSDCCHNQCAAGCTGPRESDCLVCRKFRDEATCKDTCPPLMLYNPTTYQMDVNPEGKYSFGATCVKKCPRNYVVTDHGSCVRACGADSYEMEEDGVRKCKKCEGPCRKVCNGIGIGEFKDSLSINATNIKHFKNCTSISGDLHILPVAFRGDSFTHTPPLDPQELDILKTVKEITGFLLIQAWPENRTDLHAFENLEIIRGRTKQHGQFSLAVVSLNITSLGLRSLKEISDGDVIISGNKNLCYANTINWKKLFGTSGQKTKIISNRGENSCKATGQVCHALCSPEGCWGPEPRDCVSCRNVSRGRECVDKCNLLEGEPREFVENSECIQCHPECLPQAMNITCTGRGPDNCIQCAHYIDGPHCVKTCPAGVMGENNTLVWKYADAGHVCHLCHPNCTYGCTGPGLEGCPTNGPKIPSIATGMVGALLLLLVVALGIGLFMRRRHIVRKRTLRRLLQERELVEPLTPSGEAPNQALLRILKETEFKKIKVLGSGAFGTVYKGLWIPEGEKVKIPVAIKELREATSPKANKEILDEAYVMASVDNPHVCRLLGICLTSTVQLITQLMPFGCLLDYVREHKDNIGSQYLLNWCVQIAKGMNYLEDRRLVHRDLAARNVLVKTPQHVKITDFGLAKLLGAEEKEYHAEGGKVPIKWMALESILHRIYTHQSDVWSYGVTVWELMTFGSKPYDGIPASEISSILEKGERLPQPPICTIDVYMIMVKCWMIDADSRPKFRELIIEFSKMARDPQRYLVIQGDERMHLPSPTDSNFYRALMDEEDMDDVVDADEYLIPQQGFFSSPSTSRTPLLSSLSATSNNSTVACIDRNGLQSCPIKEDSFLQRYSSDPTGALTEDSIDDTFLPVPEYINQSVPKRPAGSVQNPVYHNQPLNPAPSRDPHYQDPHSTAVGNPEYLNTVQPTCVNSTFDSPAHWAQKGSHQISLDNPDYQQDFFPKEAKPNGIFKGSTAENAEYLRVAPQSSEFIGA

By GI50 is commonly meant the concentration that inhibits growth by half. Lower therefore signals greater sensitivity of the cells. With `CC1=C(C(=O)Nc2cccc([N+](=O)[O-])c2)C(c2ccc(O)cc2O)NC(SCc2ccccc2)=N1` (stereo not given), in the assay with CDK2 (human) [1] (a431), the GI50 was greater than 100 µM.
For orientation: IC50 means the concentration that gives 50% inhibition. Low readings indicate greater potency in that assay, high ones weaker potency in that assay. Regarding `Clc1cccc(Nc2ncnc3cc4c(cc23)OCCO4)c1`, the IC50 at EGFR (human) was 0.0008 µM. That is a sub-nanomolar value.
On to `CC1=C(C(=O)Nc2cccc([N+](=O)[O-])c2)C(c2ccc(O)cc2O)NC(NCc2ccccc2)=N1` (stereo not given), for which, in the assay with CDK2 (human) [1] (hct 116), the GI50 is greater than 100 µM.
Consider `Cc1nc(NN)nc(-c2ccc(O)cc2O)c1C(=O)Nc1cccc([N+](=O)[O-])c1`, for which the half-inhibitory concentration (IC50) was greater than 100 µM against CDK2 (human) [2] and 47.9 µM on EGFR (human). Moreover, the GI50 is 24.3 µM with CDK2 (human) [1] (a431) and 47.7 µM with CDK2 (human) [1] (hct 116).
Regarding `CC1=CN(c2nc(C)c(C(=O)Nc3cccc([N+](=O)[O-])c3)c(-c3ccc(O)cc3O)n2)C(=O)C1=Cc1ccco1`, the IC50 was 10.3 µM at CDK2 (human) [2] and greater than 100 µM on EGFR (human). Also, the GI50 is 15.8 µM with CDK2 (human) [1] (a431) and greater than 100 µM in the assay with CDK2 (human) [1] (hct 116).
Turning to `Cc1nc(NN2C(=O)C(=Cc3ccco3)SC2=S)nc(-c2ccc(O)cc2O)c1C(=O)Nc1cccc([N+](=O)[O-])c1`, the IC50 came out at 0.4 µM at CDK2 (human) [2] and 99.3 µM against EGFR (human). Further, the GI50 was 28.9 µM with CDK2 (human) [1] (a431) and greater than 100 µM with CDK2 (human) [1] (hct 116).
Turning to `Cc1nc(NN2C(=O)C(=Cc3ccccc3)SC2=S)nc(-c2ccc(O)cc2O)c1C(=O)Nc1cccc([N+](=O)[O-])c1`, the IC50 at CDK2 (human) [2] is 28.2 µM; against EGFR (human), greater than 100 µM. Moreover, the GI50 worked out at 24.3 µM with CDK2 (human) [1] (a431) and 16.6 µM in the assay with CDK2 (human) [1] (hct 116).
For `Cc1nc(NN=Cc2ccco2)nc(-c2ccc(O)cc2O)c1C(=O)Nc1cccc([N+](=O)[O-])c1`, the IC50 is 3.8 µM at CDK2 (human) [2] and greater than 100 µM against EGFR (human). Further, the GI50 came out at 2.91 µM with CDK2 (human) [1] (a431) and 8.89 µM with CDK2 (human) [1] (hct 116).
For `CC1=CN(c2nc(C)c(C(=O)Nc3cccc([N+](=O)[O-])c3)c(-c3ccc(O)cc3O)n2)C(=O)C1=Cc1cccs1`, the results for the IC50 against CDK2 (human) [2] and against EGFR (human) were 3.1 µM and greater than 100 µM, respectively. In addition, the GI50 with CDK2 (human) [1] (a431) was determined as 37.1 µM; in the assay with CDK2 (human) [1] (hct 116), 26.5 µM.
In the case of `Cc1nc(NN=Cc2cccs2)nc(-c2ccc(O)cc2O)c1C(=O)Nc1cccc([N+](=O)[O-])c1`, the half-maximal inhibitory concentration (IC50) on CDK2 (human) [2] was 22.9 µM; on EGFR (human), greater than 100 µM. In addition, the GI50 in the assay with CDK2 (human) [1] (a431) stood at 19.1 µM; with CDK2 (human) [1] (hct 116), 38.2 µM.
For `Cc1nc(NN2C(=O)C(=Cc3cccs3)SC2=S)nc(-c2ccc(O)cc2O)c1C(=O)Nc1cccc([N+](=O)[O-])c1` the same measures were 0.3 µM, 80.6 µM, 2.78 µM and 4.5 µM.

The values above are taken from the Kinase Knowledgebase extract (Sharma et al. 2016).
